What was measured:
HeLa = assay: Cytotoxicity against human HeLa cells by MTT assay; assay type: functional, cell-based
[1] = Antioxidant activity assessed as trolox equivalent at 0.1 to 1 uM by ORAC-fluorescein assay; assay type: functional
[2] = Antioxidant activity assessed as trolox equivalent at 0.5 to 2.0 uM by ORAC-fluorescein assay; assay type: functional
[3] = Antioxidant activity assessed as trolox equivalent at 0.25 to 1.5 uM by ORAC-fluorescein assay; assay type: functional
[4] = Antioxidant activity assessed as trolox equivalent at 0.2 to 0.6 uM by ORAC-fluorescein assay; assay type: functional
[5] = Antioxidant activity assessed as trolox equivalent at 0.3 to 1 uM by ORAC-fluorescein assay; assay type: functional
[6] = Antioxidant activity assessed as trolox equivalent at 0.4 to 1 uM by ORAC-fluorescein assay; assay type: functional
[7] = Antioxidant activity assessed as trolox equivalent at 0.1 to 1.5 uM by ORAC-fluorescein assay; assay type: functional

Row | Compound | IC50 (HeLa) | Activity [3] | further results
1 | COc1cc(O)c(CC=C(C)C)c(O)c1C(=O)/C=C/c1cc(O)cc(O)c1 | 3.2 µM | – | Activity [1]: 2.9
2 | COc1ccc(/C=C/C(=O)c2c(OC)cc(O)c(CC=C(C)C)c2O)cc1OC | 17.1 µM | – | Activity [2]: 0.9
3 | COc1cc(O)c(CC=C(C)C)c(O)c1C(=O)/C=C/c1cccc(O)c1 | 4.8 µM | 2.7 | –
4 | O=c1c(O)c(-c2ccc(O)c(O)c2)oc2cc(O)cc(O)c12 | – | – | Activity [4]: 10.5
5 | COc1cc(O)cc(O)c1C(=O)/C=C/c1ccc(O)c(O)c1 | 14.8 µM | 3 | –
6 | COc1cc(O)c(CC=C(C)C)c(O)c1C(=O)/C=C/c1ccc(O)cc1 [XANTHOHUMOL] | 9.4 µM | 2.3 | –
7 | COc1cc(O)c(CC=C(C)C)c(O)c1C(=O)/C=C/c1ccc(O)c(O)c1 | 2.5 µM | – | Activity [1]: 3.1
8 | CC(C)=CCc1c(O)cc(O)c(C(=O)/C=C/c2ccc(O)cc2)c1O [DEMETHYLXANTHOHUMOL] | 16.5 µM | 3.8 | –
9 | COc1cc(/C=C/C(=O)O)ccc1O | – | – | Activity [5]: 4.47
10 | COc1cc(O)c(C(=O)/C=C/c2ccc(O)cc2)c(OC)c1CC=C(C)C | 25.6 µM | 1.5 | –
11 | COc1cc(O)c(CC=C(C)C)c(O)c1C(=O)/C=C/c1cc(O)c(O)c(O)c1 | 30.3 µM | – | Activity [1]: 1.1
12 | COc1cc(O)cc(O)c1C(=O)/C=C/c1ccc(O)cc1 [HELICHRYSETIN] | 5.2 µM | – | Activity [1]: 4.4
13 | O=C(O)/C=C/c1ccc(O)cc1 | – | – | Activity [6]: 4.51
14 | COc1cc(O)c(C(=O)/C=C/c2ccc(O)cc2)c(O)c1CC=C(C)C [XANTHOGALENOL] | 28.3 µM | 1.8 | –
15 | COc1cc(OC)c(C(=O)/C=C/c2ccc(O)cc2)c(O)c1CC=C(C)C | 11.8 µM | – | Activity [7]: 3.8
16 | COc1cc(O)c(CC=C(C)C)c(O)c1C(=O)/C=C/c1ccccc1O | 5.9 µM | 2.3 | –

Reference: ChEMBL document CHEMBL1149886, “Natural and non-natural prenylated chalcones: synthesis, cytotoxicity and anti-oxidative activity” (Bioorg Med Chem, 2008)
